Experimental findings from ChEMBL document CHEMBL6120994, “Unravelling the potential of natural chelating agents in the control of Staphylococcus aureus and Pseudomonas aeruginosa biofilms” (Eur J Med Chem, 2025) are described below.

Values after ≈ are worked out from the molar mass of the structure shown. Active and inactive are the calls of the source. No cut-off for these calls is given here.

For assay [1], the system named is Acinetobacter baumannii. Briefly: Antibacterial activity against Acinetobacter baumannii assessed as inhibition of bacterial growth incubated for 16 hrs by broth microdilution method. It is filed as functional.
Assay [2] deals with Escherichia coli. Briefly: Antibacterial activity against Escherichia coli BNCC133721 assessed as inhibition of bacterial growth measured after 24 hrs by broth microdilution method. It is filed as functional. For orientation: Broth dilution looks for growth in wells or tubes with falling amounts of substance.
Assay [3] concerns Pseudomonas aeruginosa. In words: Antibiotic adjuvant activity against Pseudomonas aeruginosa ATCC 10145 assessed as ciprofloxacin MBC at 125 ug/ml measured after 24 hrs in presence of ciprofloxacin by checkerboard assay (reference value: 32 ug/ml). It is filed as functional. The note with it: dose 125 µg/ml.
The test system of assay [4] is Staphylococcus aureus. In words: Inhibition of virulence production in pre-established 24 hr-old Staphylococcus aureus CECT 976 biofilms assessed as diameter of lipases halo at 10XMTC measured after 48 hrs in presence of 1/4XMIC tobramycin (reference value: 11.5 +/-0.6 mm). It is filed as functional.
Assay [5] concerns Staphylococcus aureus. Briefly: Antibiotic adjuvant activity against Staphylococcus aureus CECT 976 assessed as potentiation of tobramycin-induced antibacterial activity by measuring fractional inhibitory concentration index (MBC) at 62.5 ug/ml measured after 24 hrs by checkerboard assay. In kind it is functional. The note with it: dose 62.5 µg/ml.
Assay [6] relates to Pseudomonas aeruginosa. Briefly: Antibiofilm activity against Pseudomonas aeruginosa ATCC 10145 assessed as reduction in biofilm cells culturability by measuring reduction in number of CFU at 500 to 1000 ug/ml measured after 24 hrs by visual counting method. The note with it: dose 500-1000 µg/ml. It is filed as functional, organism-based.
For assay [7], the system named is Staphylococcus aureus. In words: Inhibition of virulence production in pre-established 24 hr-old Staphylococcus aureus CECT 976 biofilms assessed as diameter of protease halo at 1XMTC measured after 72 hrs (reference value: 12.3 to 13.3 mm). It is filed as functional.
For assay [8], the system named is Pseudomonas aeruginosa. Briefly: Antibiofilm activity against Pseudomonas aeruginosa ATCC 10145 assessed as reduction in metabolic activity of biofilm cells at 500 to 1000 ug/ml by resazurin staining based fluorescence analysis. As to conditions: dose 500-1000 µg/ml. In kind it is functional, organism-based. On the technique in general: Alamar Blue is a resazurin reagent that responds to reducing activity.

Assay [9] relates to Staphylococcus aureus. Briefly: Antibacterial activity against Staphylococcus aureus ATCC 6538 assessed as inhibition of bacterial growth measured after 24 hrs by broth microdilution method. In kind it is functional.
The subject of assay [10] is Staphylococcus aureus. In words: Antibiofilm activity against preestablished 24 hr-old Staphylococcus aureus CECT 976 assessed as reduction in biofilm cells culturability by measuring log reduction of CFU of biofilm cells at 10XMTC measured after 24 hrs by visual counting method. In kind it is functional.
Assay [11] relates to Cell membrane. Briefly: Disruption of membrane integrity in pre-established 24 hr-old Staphylococcus aureus CECT 976 assessed as reduction in number of cells at 10XMTC measured after 24 hrs in presence of 1XMIC tobramycin by SYTO9/PI dye based epifluorescence microscopy.
Assay [12] has as its system Pseudomonas aeruginosa. Briefly: Antibiofilm activity against preestablished 24 hr-old Pseudomonas aeruginosa ATCC 10145 assessed as biomass removal at 1000 to 10000 ug/ml measured after 24 hrs by crystal violet staining method. In kind it is functional. The note with it: dose 1000-10000 µg/ml, at 1000 to 10000 µg/mL.
For assay [13], the system named is Pseudomonas aeruginosa. In words: Antibiofilm activity against Pseudomonas aeruginosa PAO1 biofilm assessed as reduction of bacterial biomass by crystal violet staining based analysis. It is filed as functional.
Assay [14] has as its system Staphylococcus aureus. Briefly: Inhibition of virulence production in Staphylococcus aureus CECT 976 biofilms assessed as diameter of gelatinases halo at 1XMTC measured after 48 hrs (reference value: 11.5 to 11.8 mm). In kind it is functional.
The test system of assay [15] is Staphylococcus aureus. Briefly: Inhibition of virulence production in Staphylococcus aureus CECT 976 biofilms assessed as diameter of lipases halo at 1/2XMTC measured after 48 hrs (reference value: 11.5 to 13.3 mm). It is filed as functional.
Assay [16] has as its system Pseudomonas aeruginosa. In words: Antibiofilm activity against Pseudomonas aeruginosa ATCC 10145 assessed as reduction in biomass production at 500 to 1000 ug/ml measured after 24 hrs by crystal violet staining method. In kind it is functional, organism-based. As to conditions: dose 500-1000 µg/ml.
Assay [17] concerns Staphylococcus aureus. In words: Antibiotic adjuvant activity against Staphylococcus aureus CECT 976 assessed as fold potentiation of tobramycin-induced antibiofilm activity by measuring reduction in biomass production at 500 ug/ml measured after 24 hrs in presence of 1/4XMIC tobramycin by crystal violet staining method relative to tobramycin treated control. It is filed as functional. The note with it: dose 500 µg/ml.

The subject of assay [18] is Staphylococcus aureus. Briefly: Antibiofilm activity against Staphylococcus aureus ATCC 6538 assessed as reduction in biomass at 700 ug/ml measured after 48 hrs by crystal violet staining based analysis. In kind it is functional.
Assay [19] deals with Cell membrane. Briefly: Disruption of membrane integrity in Staphylococcus aureus CECT 976 biofilm at 500 ug/ml measured after 24 hrs in presence of 1/2XMIC tobramycin by SYTO9/PI dye based epifluorescence microscopy. As to conditions: dose 500.0 µg/ml. In kind it is subcellular.
Assay [20] concerns HepG2. Briefly: Protection against iron(III)-induced cytotoxicity in human HepG2 cells assessed as cell mass at 250 to 750 ug/ml measured after 24 hrs by SRB binding assay (reference value: 56.2 +/-5.4%). It is filed as functional. As to conditions: dose 250-750 µg/ml, at 250 to 750 µg/mL. Background: In SRB staining, fixed cells bind dye roughly in proportion to their protein.

Assay [21] relates to Staphylococcus aureus. Briefly: Antibacterial activity against Staphylococcus aureus assessed as inhibition of bacterial growth incubated for 24 hrs by broth microdilution method. It is filed as functional.
Assay [22] has as its system Staphylococcus aureus. In words: Antibiotic adjuvant activity against preestablished 24 hr-old Staphylococcus aureus CECT 976 assessed as potentiation of tobramycin-induced antibiofilm activity by measuring reduction of biomass at 10000 ug/ml measured after 24 hrs in presence of 1/4XMIC tobramycin by crystal violet staining method. In kind it is functional.
The test system of assay [23] is Pseudomonas aeruginosa. In words: Antibiotic adjuvant activity against Pseudomonas aeruginosa ATCC 10145 assessed as fractional inhibitory concentration index (MBC) at 15.6 ug/ml measured after 24 hrs in presence of ciprofloxacin by checkerboard assay. The note with it: dose 15.6 µg/ml. In kind it is functional.
Assay [24] concerns Pseudomonas aeruginosa. In words: Antibiofilm activity against Pseudomonas aeruginosa ATCC 10145 assessed as reduction in biomass production at 1000 ug/ml measured after 24 hrs by crystal violet staining method. It is filed as functional.
Assay [25] deals with Staphylococcus aureus. Briefly: Antibiotic adjuvant activity against preestablished 24 hr-old Staphylococcus aureus CECT 976 assessed as potentiation of tobramycin-induced antibiofilm activity by measuring log reduction of CFU of biofilm cells at 10000 ug/ml in presence of 1/4XMIC to MIC tobramycin measured after 24 hrs by visual counting method. The note with it: dose 10000 µg/ml. In kind it is functional.

The subject of assay [26] is Staphylococcus aureus. Briefly: Antibacterial activity against Staphylococcus aureus assessed as loss of intracellular content at 5000 ug/ml incubated for 4 hrs by transmission electron microscopy. As to conditions: dose 5000 µg/ml. In kind it is functional.
Assay [27] concerns Pseudomonas aeruginosa. In words: Antibiofilm activity against preestablished 24 hr-old Pseudomonas aeruginosa ATCC 10145 assessed as reduction in biofilm cells culturability by measuring log reduction of CFU of biofilm cells at 10XMTC measured after 24 hrs by visual counting method. It is filed as functional.
For assay [28], the system named is Pseudomonas aeruginosa. In words: Antibiotic adjuvant activity against Pseudomonas aeruginosa ATCC 10145 assessed as ciprofloxacin MBC at 15.6 ug/ml measured after 24 hrs in presence of ciprofloxacin by checkerboard assay (reference value: 32 ug/ml). It is filed as functional. As to conditions: dose 15.6 µg/ml.
Assay [29] has as its system Pseudomonas aeruginosa. Briefly: Antibacterial activity against Pseudomonas aeruginosa assessed as inhibition of bacterial growth incubated for 24 hrs by broth microdilution method. It is filed as functional.
In assay [30] the test system is Pseudomonas aeruginosa. In words: Antibiofilm activity against Pseudomonas aeruginosa ATCC 10145 assessed as reduction in biomass production at 500 ug/ml measured after 24 hrs by crystal violet staining method. It is filed as functional.

In general, MIC refers to the lowest concentration found to suppress growth. A word on the MBC: it is the lowest tested concentration that kills the bacteria rather than only halting them. For orientation: inhibition means the change of the read-out against control, counted positive when it falls. Consider `O=c1cc(CO)occ1O` [KOJIC ACID], for which the MIC in assay [1] came out at 3410 µg/mL (≈ 24 mM); in assay [9], 1400 µg/mL (≈ 9.85 mM). Besides, the Activity in assay [2] was above 1000 µg/mL; in [4], 2.5 mm; in assay [7], 3.5 mm; in assay [10], 1.9 log10CFU/cm^-2; in assay [14], 0 mm; in [15], 2.8 mm. For the same compound, the Activity in [20] is recorded as above 61.8%. In addition, the MBC in [3] was 32 µg/mL. Also, in assay [5], the “fractional inhibitory concentration index (FICI)” value came to 0.3. The outcome in assay [6], in assay [8], in assay [16] and in assay [19] was inactive. For the same compound, the outcome in assay [11] was Active. Further, the “inhibition (INH)” value in [12] is 15%; in [13], 27%. Besides, in assay [17], the “fold change (FC)” value is listed as 2.6. For the same compound, the inhibition at 700 µg/mL in assay [18] is 40%.

`Cc1occc(=O)c1O` [MALTOL]: the MIC in assay [21] and in assay [29] was 4000 µg/mL (≈ 31.7 mM) throughout. The inhibition at 10000 µg/mL in assay [22] turned out to be 31%. The Activity in assay [4] stood at 2.3 mm; in [7], 3.5 mm; in assay [25], 2 log10CFU/cm^-2; in assay [26], 7.7%; in assay [27], 3.1 log10CFU/cm^-2; in assay [14], 0 mm. For the same compound, the Activity in assay [15] is 3.5 mm. Besides, the entries for the “fractional inhibitory concentration index (FICI)” value in assay [5] and in assay [23] were 0.3 and 1, respectively. The inhibition at 1000 µg/mL in assay [24] is 40%. The result in assay [11] was Active. Also, the “inhibition (INH)” value in [12] is on record as 15%. For the same compound, the MBC in assay [28] worked out at 32 µg/mL. Further, the result in [19] was inactive. For the same compound, the inhibition at 500 µg/mL in assay [30] is below 15%.
